Where “and” joins values, the source holds several entries; their conditions need not be identical. Equal values may be shown once. Marks after values point to notes of the source that are not given here. Non-standard residues stand in square brackets, D forms with d. Residues, ends and D or L forms follow the SMILES beside them. *: point of attachment. Asu = N[C@@H](CCCCCC(=O)O)C(=O)O; NHOH = ON*
Assays:
[1] = target: T1, HDAC3/NCoR2 (Homo sapiens, UniProt O15379); experiment: HDAC inhibition assay (fluorogenic, Ac-Leu-Gly-Lys(Ac)-AMC); type: biochemical; settings: for HDAC3 dose-response data (relative enzyme activity), Fig. 6 + S. Fig. 10: duplicate columns
T1 construct: HDAC3/NCoR2 (full length, C-terminal His tag, NCoR2 N-terminal GST tag); purchased BPS Bioscience 50003

[2] = target: T2, HDAC2 (Homo sapiens, UniProt Q92769); experiment: Recombinant HDAC µSPOT microarray binding assay;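 note: Cellulose-bound peptide spots on slides incubated with six HDAC enzyme concentrations, binding intensity read, four-parameter variable-slope fit, EC50 is enzyme concentration giving half-maximal binding, in HEPES buffer pH 7.4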
T2 construct: HDAC2 (full length, C-terminal His tag, BPS Bioscience, cat. #: 50002); purchased BPS Bioscience 50002

[3] = target: T2, HDAC2; experiment: HDAC inhibition assay (fluorogenic, Ac-Leu-Gly-Lys(Ac)-AMC); type: biochemical; settings: for HDAC2 dose-response data (relative enzyme activity), Fig. 6 + S. Fig. 10: duplicate columns
[4] = target: T3, HDAC8 (Homo sapiens, UniProt Q9BY41); experiment: Recombinant HDAC µSPOT microarray binding assay;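 note: peptide µSPOT slides incubated with varying HDAC enzyme concentrations, imaged signal intensity fitted by four-parameter variable-slope regression, EC50 is enzyme concentration giving half-maximal binding, pH 7.4 HEPES buffer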
T3 construct: HDAC8 (full length, C-terminal His tag, BPS Bioscience, cat. #: 50008); purchased BPS Bioscience 50008
T3 sequence (Q9BY41 1-377): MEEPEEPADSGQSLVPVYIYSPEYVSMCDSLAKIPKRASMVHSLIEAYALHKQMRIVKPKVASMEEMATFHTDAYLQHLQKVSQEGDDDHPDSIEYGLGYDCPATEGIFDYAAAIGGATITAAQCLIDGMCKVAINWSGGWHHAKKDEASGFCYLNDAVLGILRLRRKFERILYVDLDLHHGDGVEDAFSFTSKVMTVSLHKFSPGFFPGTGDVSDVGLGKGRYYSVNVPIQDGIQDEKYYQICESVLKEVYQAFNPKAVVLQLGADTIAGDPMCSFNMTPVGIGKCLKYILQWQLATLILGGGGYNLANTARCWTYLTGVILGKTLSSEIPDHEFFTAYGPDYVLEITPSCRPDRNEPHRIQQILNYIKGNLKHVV

[5] = target: T4, HDAC6 (Homo sapiens, UniProt Q9UBN7); experiment: HDAC inhibition assay (fluorogenic, Ac-Leu-Gly-Lys(Ac)-AMC); type: biochemical; settings: HDAC6, replicates
T4 construct: HDAC6 (full length, BPS Bioscience, cat. #: 50056); purchased BPS Bioscience 50056
T4 sequence (Q9UBN7 1-1215): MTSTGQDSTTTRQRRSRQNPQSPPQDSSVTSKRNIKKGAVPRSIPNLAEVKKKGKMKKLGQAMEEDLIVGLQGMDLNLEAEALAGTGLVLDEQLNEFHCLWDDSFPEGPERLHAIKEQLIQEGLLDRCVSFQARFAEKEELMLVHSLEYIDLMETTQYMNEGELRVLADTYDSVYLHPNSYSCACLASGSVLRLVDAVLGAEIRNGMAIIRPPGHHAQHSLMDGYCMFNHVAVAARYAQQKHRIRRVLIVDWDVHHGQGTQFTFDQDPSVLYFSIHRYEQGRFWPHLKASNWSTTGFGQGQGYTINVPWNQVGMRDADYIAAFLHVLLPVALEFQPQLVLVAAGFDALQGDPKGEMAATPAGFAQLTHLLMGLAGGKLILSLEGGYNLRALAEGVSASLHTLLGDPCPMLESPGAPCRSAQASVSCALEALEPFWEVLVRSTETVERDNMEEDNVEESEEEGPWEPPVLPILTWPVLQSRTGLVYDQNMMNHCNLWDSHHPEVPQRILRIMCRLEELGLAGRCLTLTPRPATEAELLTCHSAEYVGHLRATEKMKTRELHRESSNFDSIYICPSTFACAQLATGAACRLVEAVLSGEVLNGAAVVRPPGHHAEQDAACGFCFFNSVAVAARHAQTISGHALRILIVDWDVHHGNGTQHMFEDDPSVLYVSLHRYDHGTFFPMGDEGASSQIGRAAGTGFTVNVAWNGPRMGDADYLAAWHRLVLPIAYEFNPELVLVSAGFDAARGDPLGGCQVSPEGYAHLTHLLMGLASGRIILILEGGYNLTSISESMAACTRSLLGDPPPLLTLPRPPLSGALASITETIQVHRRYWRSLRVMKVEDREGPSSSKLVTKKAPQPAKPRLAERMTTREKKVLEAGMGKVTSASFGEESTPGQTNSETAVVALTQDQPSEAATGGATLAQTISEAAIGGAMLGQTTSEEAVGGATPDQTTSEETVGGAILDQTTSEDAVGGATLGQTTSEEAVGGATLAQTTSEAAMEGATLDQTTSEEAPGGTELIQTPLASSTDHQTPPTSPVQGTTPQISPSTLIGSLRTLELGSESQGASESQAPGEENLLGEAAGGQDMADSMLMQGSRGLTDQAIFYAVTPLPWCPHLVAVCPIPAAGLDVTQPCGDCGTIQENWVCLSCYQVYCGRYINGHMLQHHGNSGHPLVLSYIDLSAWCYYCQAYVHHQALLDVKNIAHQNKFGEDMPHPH

[6] = log[inhibitor(M)] -10,5850266520292*, whole line marked with asterisks

T1 sequence (O15379 whole entry): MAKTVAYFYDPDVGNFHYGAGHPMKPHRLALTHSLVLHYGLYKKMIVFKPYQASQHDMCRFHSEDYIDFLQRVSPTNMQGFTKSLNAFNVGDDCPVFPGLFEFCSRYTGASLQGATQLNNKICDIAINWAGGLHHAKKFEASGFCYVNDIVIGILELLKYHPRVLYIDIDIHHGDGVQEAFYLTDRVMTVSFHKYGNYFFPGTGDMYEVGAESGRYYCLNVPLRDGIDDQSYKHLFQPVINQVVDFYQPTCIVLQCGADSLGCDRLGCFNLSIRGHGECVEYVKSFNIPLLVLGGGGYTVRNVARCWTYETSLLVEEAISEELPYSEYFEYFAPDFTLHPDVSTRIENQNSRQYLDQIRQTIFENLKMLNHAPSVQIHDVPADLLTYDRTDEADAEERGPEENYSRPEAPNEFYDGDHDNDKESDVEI
T1 sequence (Q9Y618 389-480 partner limits assumed): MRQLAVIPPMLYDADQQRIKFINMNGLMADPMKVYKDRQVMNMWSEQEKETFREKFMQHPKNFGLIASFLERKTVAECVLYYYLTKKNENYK
T2 sequence (Q92769 whole entry): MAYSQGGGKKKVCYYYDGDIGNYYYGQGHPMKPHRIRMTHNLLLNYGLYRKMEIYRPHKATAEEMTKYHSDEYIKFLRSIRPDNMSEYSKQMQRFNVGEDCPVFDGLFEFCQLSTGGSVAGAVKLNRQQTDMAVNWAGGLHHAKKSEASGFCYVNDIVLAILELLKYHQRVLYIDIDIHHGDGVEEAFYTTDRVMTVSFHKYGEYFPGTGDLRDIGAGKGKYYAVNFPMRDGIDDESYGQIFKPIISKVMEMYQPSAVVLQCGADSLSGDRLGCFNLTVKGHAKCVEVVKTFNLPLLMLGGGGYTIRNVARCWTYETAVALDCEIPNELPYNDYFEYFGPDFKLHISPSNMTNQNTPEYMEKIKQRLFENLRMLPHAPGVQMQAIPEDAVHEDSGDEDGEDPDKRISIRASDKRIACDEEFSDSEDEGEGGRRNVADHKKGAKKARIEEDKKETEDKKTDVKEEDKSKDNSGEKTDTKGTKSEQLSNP

CC[C@H](C)[C@H](NC(=O)[C@H](CCC(=O)O)NC(=O)[C@H](CCCNC(=N)N)NC(=O)[C@H](CO)NC(=O)[C@@H](NC(=O)[C@@H](NC(=O)[C@@H](NC(=O)[C@H](CO)NC(=O)[C@H](CCCNC(=N)N)NC(=O)[C@H](CCCCCC(=O)NO)NC(=O)[C@H](CC(N)=O)NC(=O)[C@H](Cc1ccc(O)cc1)NC(=O)[C@H](Cc1c[nH]cn1)NC(C)=O)[C@@H](C)O)[C@@H](C)CC)[C@@H](C)O)C(=O)N[C@@H](CCC(N)=O)C(=O)N[C@H](C(=O)N[C@@H](C)C(=O)N[C@@H](Cc1c[nH]c2ccccc12)C(N)=O)[C@@H](C)O [12a] (Ac-HYN[Asu](NHOH)RSTITSREIQTAW-NH2)
HDAC3 dose-response data (relative enzyme activity), Fig. 6 + S. Fig. 10 ([1]; log[inhibitor(M)] -5): 1.408 and 1.481 | HDAC3 dose-response data (relative enzyme activity), Fig. 6 + S. Fig. 10 ([1]; log[inhibitor(M)] -5.69897): 5.267 and 4.363 | HDAC3 dose-response data (relative enzyme activity), Fig. 6 + S. Fig. 10 ([1]; log[inhibitor(M)] -6.39794): 16.4324 and 13.9407 | HDAC3 dose-response data (relative enzyme activity), Fig. 6 + S. Fig. 10 ([1]; log[inhibitor(M)] -7.09691): 38.5352 and 35.6199 | HDAC3 dose-response data (relative enzyme activity), Fig. 6 + S. Fig. 10 ([1]; log[inhibitor(M)] -7.79588): 73.2464 and 64.9902 | HDAC3 dose-response data (relative enzyme activity), Fig. 6 + S. Fig. 10 ([1]; log[inhibitor(M)] -8.49485): 93.6652 and 87.0389 | HDAC3 dose-response data (relative enzyme activity), Fig. 6 + S. Fig. 10 ([1]; log[inhibitor(M)] -9.19382): 96.2351 and 93.241 | HDAC3 dose-response data (relative enzyme activity), Fig. 6 + S. Fig. 10 ([1]; log[inhibitor(M)] -9.89279): 95.5729 and 96.0845 | HDAC3 dose-response data (relative enzyme activity), Fig. 6 + S. Fig. 10 [1, 6]: 103,997369* and 102,157851* | selectivity for HDAC3 vs. HDACs 1 and 2 ([1]; resynthesized peptides, from Ki): ~ 2 fold | EC50 [2]: > 25.1 nM | HDAC2 dose-response data (relative enzyme activity), Fig. 6 + S. Fig. 10 ([3]; log[inhibitor(M)] -5): 3.067 and 2.914 | HDAC2 dose-response data (relative enzyme activity), Fig. 6 + S. Fig. 10 ([3]; log[inhibitor(M)] -5.69897): 11.3787 and 10.2695 | HDAC2 dose-response data (relative enzyme activity), Fig. 6 + S. Fig. 10 ([3]; log[inhibitor(M)] -7.79588): 90.7701 and 92.8679 | HDAC2 dose-response data (relative enzyme activity), Fig. 6 + S. Fig. 10 [3, 6]: 102,18881* and 100,790249* | Ki ([3]; resynthesized peptide in solution, Cheng-Prusoff, n = 2): 23.8 ± 0.1 nM | EC50 [4]: > 25.1 nM | residual enzymatic activity relative to control wells ([5]; log[inhibitor(M)] -4.30103): 1.727 and 0.8308 | residual enzymatic activity relative to control wells ([5]; log[inhibitor(M)] -5): 2.004 and 3.233 | residual enzymatic activity relative to control wells ([5]; log[inhibitor(M)] -5.69897): 5.047 and 6.177 | residual enzymatic activity relative to control wells ([5]; log[inhibitor(M)] -6.39794): 15.6412 and 12.824 | residual enzymatic activity relative to control wells ([5]; log[inhibitor(M)] -7.09691): 40.6476 and 34.5345 | residual enzymatic activity relative to control wells ([5]; log[inhibitor(M)] -7.79588): 71.7467 and 73.0064 | residual enzymatic activity relative to control wells ([5]; log[inhibitor(M)] -8.49485): 80.6815 and 89.6415 | residual enzymatic activity relative to control wells ([5]; log[inhibitor(M)] -9.19382): 82.3274 and 88.4313 | residual enzymatic activity relative to control wells ([5]; log[inhibitor(M)] -9.89279): 83.6621 and 89.4789 | residual enzymatic activity relative to control wells ([5]; log[inhibitor(M)] -10.585): 102.86 and 101.255
